Among the test systems are CCRF-CEM leukemia; HOP-92 NSCLC; NCI-H23 lung; NCI-H522 lung; OVCAR-8 ovarian; SF-295 CNS; SK-MEL-2 melanoma; SNB-75 CNS; SW-620 colon; U251 CNS.
Holding throughout (experiment): inhibition of tumour cell growth, NCI panel, 48 h

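1) Cells in 96-well plates. 2) Compound, 48 h, 5 concentrations. 3) Linear interpolation between surrounding doses. 4) Unreached endpoint = highest concentration. GI50 = concentration required for 50% inhibition of growth. The concentration for full growth arrest is given as TGI.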

On to `O=C(C(O)c1cn(Cc2ccccc2)c2ccccc12)N1CCCCC1` (stereo not given), for which the TGI in the test on CCRF-CEM leukemia was > 100 µM; with HOP-92 NSCLC, > 100 µM; in the test on NCI-H23 lung it was > 10 µM; in the test on NCI-H522 lung, > 100 µM; with OVCAR-8 ovarian, > 100 µM; in the test with SF-295 CNS it was > 100 µM. Moreover, the TGI is > 100 µM in the test on SK-MEL-2 melanoma, > 100 µM in the test on SNB-75 CNS, > 100 µM with SW-620 colon and > 10 µM in the test with U251 CNS.
For `CN1CCN(Cc2ccc(NC(=O)c3cncc(C#Cc4cnc(N)c5ccc(F)cc45)c3)cc2C(F)(F)F)CC1`, the GI50 is 0.865 µM in the test on CCRF-CEM leukemia; 0.989 µM in the test with HOP-92 NSCLC; 2.4 µM with NCI-H23 lung; 1.86 µM in the test on NCI-H522 lung; 2.31 µM in the test with OVCAR-8 ovarian; 2.9 µM with SF-295 CNS. Also, the GI50 in the test on SK-MEL-2 melanoma was 0.808 µM; in the test on SNB-75 CNS, 1.3 µM; with SW-620 colon, 1.3 µM; in the test on U251 CNS, 2.14 µM. For the same compound, the TGI with CCRF-CEM leukemia is 16.4 µM; with HOP-92 NSCLC, 5.58 µM; in the test on NCI-H23 lung it was 7.86 µM; with NCI-H522 lung, 6.53 µM; in the test with OVCAR-8 ovarian, 7.09 µM; in the test on SF-295 CNS, 7.35 µM. In addition, the TGI amounted to 2.39 µM in the test with SK-MEL-2 melanoma, 5.71 µM in the test on SNB-75 CNS, 4.83 µM with SW-620 colon and 6.56 µM in the test with U251 CNS.
In the case of `COc1ccc(NC(=O)C2C(=O)N(c3ccc(OC)cc3)C(=O)/C2=N/O)cc1` (stereo not given), the TGI is > 100 µM in the test on CCRF-CEM leukemia; 47.8 µM in the test with HOP-92 NSCLC; > 88.1 µM in the test with NCI-H23 lung; 53.4 µM with NCI-H522 lung; 32 µM in the test on OVCAR-8 ovarian; 52.5 µM in the test on SF-295 CNS. Also, the TGI in the test with SK-MEL-2 melanoma is > 86.8 µM; with SNB-75 CNS, > 73.7 µM; in the test on SW-620 colon, > 100 µM; with U251 CNS, 42.9 µM.
Consider `Nc1c(C(=O)c2ccccc2)sc2nc(-c3cccs3)ccc12`, for which the GI50 is 0.524 µM in the test on CCRF-CEM leukemia; 0.486 µM in the test on HOP-92 NSCLC; 0.331 µM in the test on NCI-H23 lung; 0.0178 µM in the test on NCI-H522 lung; 0.453 µM with OVCAR-8 ovarian; 0.171 µM in the test on SF-295 CNS. Moreover, the GI50 with SK-MEL-2 melanoma is 0.252 µM; in the test on SNB-75 CNS, 0.187 µM; with SW-620 colon, 0.0734 µM; with U251 CNS, 0.281 µM. Moreover, the TGI in the test on CCRF-CEM leukemia is > 100 µM; with HOP-92 NSCLC, 7.31 µM; with NCI-H23 lung it was 10.1 µM; with NCI-H522 lung, 0.0567 µM; in the test on OVCAR-8 ovarian it was > 100 µM; in the test with SF-295 CNS, 1.71 µM. The TGI in the test with SK-MEL-2 melanoma stood at 17.8 µM; in the test on SNB-75 CNS it was 1.42 µM; in the test on SW-620 colon it was 11.1 µM; in the test with U251 CNS, 14.1 µM.
For the compound `O=c1oc2ccccc2c(O)c1/C=N\c1nc(-c2ccccc2)cs1`, the TGI is 9.74 µM in the test on CCRF-CEM leukemia; 25.2 µM in the test with HOP-92 NSCLC; 46.9 µM in the test on NCI-H23 lung; 5.71 µM in the test on NCI-H522 lung; > 100 µM in the test on OVCAR-8 ovarian; 69.2 µM in the test on SF-295 CNS. The TGI in the test on SK-MEL-2 melanoma was found to be 36 µM; in the test on SNB-75 CNS it was 21.6 µM; in the test on SW-620 colon, 16.2 µM; in the test on U251 CNS, 24.9 µM.
Regarding `O=c1cc(-c2ccccc2)[nH]c2cc(Cl)cc(Cl)c12`, the TGI with CCRF-CEM leukemia was > 100 µM; in the test on HOP-92 NSCLC it was 58.3 µM; in the test on NCI-H23 lung it was > 100 µM; in the test on NCI-H522 lung, > 100 µM; in the test on OVCAR-8 ovarian, 83.5 µM; in the test on SF-295 CNS it was > 100 µM. The TGI with SK-MEL-2 melanoma was > 100 µM; in the test on SNB-75 CNS it was 30 µM; in the test with SW-620 colon, > 100 µM; with U251 CNS, > 100 µM.
With `Cc1ccc(C(=O)c2oc3ccc4c(C)cc(=O)oc4c3c2C)cc1`, the GI50 is > 100 µM in the test with CCRF-CEM leukemia; 27.1 µM with HOP-92 NSCLC; 27.3 µM with NCI-H23 lung; 9.12 µM with NCI-H522 lung; 6.08 µM in the test with OVCAR-8 ovarian; 2.19 µM in the test on SF-295 CNS. The GI50 in the test on SK-MEL-2 melanoma was 35 µM; with SNB-75 CNS, 4.19 µM; in the test with SW-620 colon, 8.56 µM; with U251 CNS, 3.64 µM. Moreover, the TGI with CCRF-CEM leukemia is > 100 µM; in the test on HOP-92 NSCLC, 95.2 µM; in the test on NCI-H23 lung, > 100 µM; with NCI-H522 lung it was 55.2 µM; with OVCAR-8 ovarian, > 100 µM; with SF-295 CNS, 30.2 µM. The TGI with SK-MEL-2 melanoma is > 100 µM; in the test with SNB-75 CNS it was 39.4 µM; with SW-620 colon, > 100 µM; with U251 CNS, > 100 µM.
Regarding `Oc1ccc(N=Nc2ccc(Cl)cc2)cc1`, the TGI in the test on CCRF-CEM leukemia is > 100 µM; with HOP-92 NSCLC, 29.2 µM; in the test on NCI-H23 lung, 32.3 µM; with NCI-H522 lung it was 25 µM; in the test on OVCAR-8 ovarian it was 38.2 µM; in the test on SF-295 CNS, 34.6 µM. Further, the TGI in the test on SK-MEL-2 melanoma is 28.4 µM; with SNB-75 CNS, 46.1 µM; with SW-620 colon, > 100 µM; in the test with U251 CNS, 29.7 µM.
As to `COc1cc2c(cc1C)NC(=O)/C2=C\c1cc(OC)c(OC)c(OC)c1`, the GI50 in the test on CCRF-CEM leukemia was 8.18 µM; in the test with HOP-92 NSCLC it was 10.4 µM; in the test on NCI-H23 lung, 29.7 µM; with NCI-H522 lung it was > 100 µM; in the test on OVCAR-8 ovarian, > 100 µM; in the test with SF-295 CNS, 39.5 µM. Also, the GI50 in the test on SK-MEL-2 melanoma is 34.3 µM; with SNB-75 CNS, 12.9 µM; with SW-620 colon, > 100 µM; with U251 CNS it was 22.9 µM. Further, the TGI with CCRF-CEM leukemia was 32.1 µM; with HOP-92 NSCLC, 30.6 µM; in the test on NCI-H23 lung, > 100 µM; in the test with NCI-H522 lung, > 100 µM; in the test with OVCAR-8 ovarian, > 100 µM; with SF-295 CNS, > 100 µM. The TGI in the test on SK-MEL-2 melanoma is > 100 µM; in the test on SNB-75 CNS, 31.4 µM; with SW-620 colon, > 100 µM; in the test on U251 CNS, > 100 µM.

Values taken from PubChem BioAssay (NCI).
